pIC50: −log10 of the molar value. In brackets after ≈: the same amount, converted by molar mass.
How the values were obtained:
[1] = target: Serine/threonine-protein kinase B-raf (Homo sapiens, UniProt P15056); assay: Inhibition of BRAF (unknown origin) after 60 mins by TR-FRET assay
[2] = Inhibition of CDK11 (unknown origin) after 60 mins by TR-FRET assay; set-up: species or system Homo sapiens
[3] = target: T1, Serine/threonine-protein kinase Nek2 (Homo sapiens, UniProt P51955); assay: Inhibition of NEK2 (unknown origin) after 60 mins by TR-FRET assay
T1 sequence (P51955 whole entry): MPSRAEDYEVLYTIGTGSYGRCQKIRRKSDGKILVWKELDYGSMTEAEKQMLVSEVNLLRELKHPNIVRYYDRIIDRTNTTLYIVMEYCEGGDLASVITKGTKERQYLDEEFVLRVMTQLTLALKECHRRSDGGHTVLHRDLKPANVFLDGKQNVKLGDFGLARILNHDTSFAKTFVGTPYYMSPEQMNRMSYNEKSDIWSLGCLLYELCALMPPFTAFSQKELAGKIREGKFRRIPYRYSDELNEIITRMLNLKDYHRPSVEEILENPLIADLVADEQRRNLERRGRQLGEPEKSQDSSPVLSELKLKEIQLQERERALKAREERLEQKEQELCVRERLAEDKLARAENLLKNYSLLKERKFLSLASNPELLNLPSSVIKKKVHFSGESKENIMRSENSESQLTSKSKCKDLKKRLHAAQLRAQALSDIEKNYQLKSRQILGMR

[4] = target: cGMP-dependent protein kinase 1 (Homo sapiens, UniProt Q13976); assay: Inhibition of PKG1A (unknown origin) after 60 mins by TR-FRET assay
[5] = target: Rho-associated protein kinase 2 (Homo sapiens, UniProt O75116); assay: Inhibition of ROCK2 (unknown origin) after 60 mins by TR-FRET assay
[6] = target: T2, Serine/threonine-protein kinase TAO2 (Homo sapiens, UniProt Q9UL54); assay: Inhibition of TAOK2 (unknown origin) after 60 mins by TR-FRET assay
T2 sequence (Q9UL54 whole entry): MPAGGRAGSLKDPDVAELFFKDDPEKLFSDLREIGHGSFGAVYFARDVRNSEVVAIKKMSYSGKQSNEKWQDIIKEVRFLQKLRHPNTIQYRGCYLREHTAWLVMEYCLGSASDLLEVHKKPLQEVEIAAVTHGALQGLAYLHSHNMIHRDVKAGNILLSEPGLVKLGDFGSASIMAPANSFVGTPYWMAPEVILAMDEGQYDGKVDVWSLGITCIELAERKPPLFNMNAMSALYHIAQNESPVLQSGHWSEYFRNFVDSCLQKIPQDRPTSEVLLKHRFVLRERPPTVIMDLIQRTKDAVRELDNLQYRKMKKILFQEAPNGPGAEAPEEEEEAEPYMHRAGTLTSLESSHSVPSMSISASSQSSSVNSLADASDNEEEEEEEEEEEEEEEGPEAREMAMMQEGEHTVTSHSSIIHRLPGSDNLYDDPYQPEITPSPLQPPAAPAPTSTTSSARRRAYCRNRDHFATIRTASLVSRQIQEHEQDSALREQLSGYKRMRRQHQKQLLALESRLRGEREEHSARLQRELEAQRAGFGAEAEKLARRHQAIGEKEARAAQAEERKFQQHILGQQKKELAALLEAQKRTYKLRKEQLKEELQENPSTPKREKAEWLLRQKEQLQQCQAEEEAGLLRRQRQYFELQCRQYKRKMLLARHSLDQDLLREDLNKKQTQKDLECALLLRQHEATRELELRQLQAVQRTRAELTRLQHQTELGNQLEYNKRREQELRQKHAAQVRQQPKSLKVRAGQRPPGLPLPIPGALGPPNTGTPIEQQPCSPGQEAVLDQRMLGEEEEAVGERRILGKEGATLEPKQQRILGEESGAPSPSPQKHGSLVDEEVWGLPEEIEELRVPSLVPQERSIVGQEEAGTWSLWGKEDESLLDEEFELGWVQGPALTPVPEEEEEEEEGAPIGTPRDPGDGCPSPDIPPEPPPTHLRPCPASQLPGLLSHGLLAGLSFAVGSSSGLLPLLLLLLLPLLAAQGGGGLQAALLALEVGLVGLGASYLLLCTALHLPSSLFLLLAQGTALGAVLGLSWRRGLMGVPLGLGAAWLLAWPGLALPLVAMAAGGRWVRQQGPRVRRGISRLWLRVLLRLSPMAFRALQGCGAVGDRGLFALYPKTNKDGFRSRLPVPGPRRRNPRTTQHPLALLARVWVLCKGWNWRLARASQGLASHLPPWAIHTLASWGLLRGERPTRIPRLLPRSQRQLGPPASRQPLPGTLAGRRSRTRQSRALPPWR

[7] = target: T3, Dual specificity protein kinase TTK (Homo sapiens, UniProt P33981); assay: Inhibition of TTK (unknown origin) after 60 mins by TR-FRET assay
T3 sequence (P33981 whole entry): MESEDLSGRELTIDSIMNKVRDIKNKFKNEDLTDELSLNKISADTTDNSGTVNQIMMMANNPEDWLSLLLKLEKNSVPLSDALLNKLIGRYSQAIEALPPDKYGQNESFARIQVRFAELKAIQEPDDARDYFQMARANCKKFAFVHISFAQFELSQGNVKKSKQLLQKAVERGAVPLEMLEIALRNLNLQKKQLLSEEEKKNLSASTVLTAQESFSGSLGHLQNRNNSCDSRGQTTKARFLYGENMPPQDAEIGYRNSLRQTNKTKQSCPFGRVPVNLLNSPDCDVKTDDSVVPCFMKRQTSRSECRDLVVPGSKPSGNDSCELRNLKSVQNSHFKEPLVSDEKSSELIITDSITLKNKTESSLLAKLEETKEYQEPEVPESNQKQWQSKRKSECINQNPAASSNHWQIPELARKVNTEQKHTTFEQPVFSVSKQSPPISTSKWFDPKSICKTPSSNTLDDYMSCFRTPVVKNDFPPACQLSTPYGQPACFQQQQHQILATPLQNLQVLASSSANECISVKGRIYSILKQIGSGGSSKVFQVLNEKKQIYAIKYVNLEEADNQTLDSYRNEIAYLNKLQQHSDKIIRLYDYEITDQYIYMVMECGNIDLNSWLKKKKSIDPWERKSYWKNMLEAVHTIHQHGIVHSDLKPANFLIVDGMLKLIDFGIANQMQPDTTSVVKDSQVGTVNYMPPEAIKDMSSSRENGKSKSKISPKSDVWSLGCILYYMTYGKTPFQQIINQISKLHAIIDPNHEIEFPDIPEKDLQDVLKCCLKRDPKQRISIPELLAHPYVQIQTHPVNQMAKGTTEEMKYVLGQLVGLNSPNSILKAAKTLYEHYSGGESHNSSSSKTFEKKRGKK

[8] = target: T4, Tyrosine-protein kinase SYK (Homo sapiens, UniProt P43405)
Description: Inhibition of C-terminal His-tagged Syk catalytic domain (356 to 635 residues) (unknown origin) using biotin-TYR1 as substrate after 60 mins by TR-FRET assay

[9] = target: T4, Tyrosine-protein kinase SYK; remark: listed apart in the source
Description: Inhibition of Syk (unknown origin) after 60 mins by TR-FRET assay

[10] = Unbound clearance in rat microsomes; assay type: ADME, Microsome
[11] = Unbound clearance in human microsomes; assay type: ADME, Microsome
[12] = Solubility in pH 5 FeSSIF at 0.2 mg sonicated for 10 mins followed by incubation for 2 days by HPLC analysis; assay type: physicochemical
Cytochrome P450 3A4 = Cytochrome P450 3A4 (Homo sapiens, UniProt P08684); assay: Time-dependent inhibition of CYP3A4 in human liver microsomes at 10 to 50 uM; assay type: ADME
[13] = Clearance in rat at 1 mg/kg, iv; assay type: ADME, organism-based; details: in vivo
[14] = Clearance in dog at 1 mg/kg, iv; assay type: ADME, organism-based, Canis lupus familiaris; details: in vivo
[15] = Half life in rat at 1 mg/kg, iv; assay type: ADME, organism-based; details: in vivo
[16] = Half life in dog at 1 mg/kg, iv; assay type: ADME, organism-based, Canis lupus familiaris; details: in vivo
[17] = Volume of distribution at steady state in rat at 1 mg/kg, iv; assay type: ADME, organism-based; details: in vivo, read-out: Vdss
[18] = Volume of distribution at steady state in dog at 1 mg/kg, iv; assay type: ADME, organism-based, Canis lupus familiaris; details: in vivo, read-out: Vdss
[19] = Oral bioavailability in rat at 1 mg/kg; assay type: ADME, organism-based; details: in vivo
[20] = Oral bioavailability in dog at 1 mg/kg; assay type: ADME, organism-based, Canis lupus familiaris; details: in vivo
[21] = AUC in rat at 1 mg/kg, po; assay type: ADME, organism-based; details: in vivo
[22] = AUC in dog at 1 mg/kg, po; assay type: ADME, organism-based, Canis lupus familiaris; details: in vivo
[23] = Cmax in rat at 1 mg/kg, po; assay type: ADME, organism-based; set-up: dose 1 mg/kg, route oral; details: in vivo
[24] = Cmax in dog at 1 mg/kg, po; assay type: ADME, organism-based, Canis lupus familiaris; set-up: dose 1 mg/kg, route oral; details: in vivo
Rattus norvegicus [25] = assay: Antiarthritic activity in po dosed rat model of collagen-induced arthritis assessed as inhibition of paw swelling administered bid for 8 days; details: 192 h
Rattus norvegicus [26] = assay: Antiarthritic activity in rat model of collagen-induced arthritis assessed as inhibition of paw swelling at 0.3 mg/kg, bid for 8 days relative to control; assay type: functional; details: 192 h
Rattus norvegicus [27] = assay: Antiarthritic activity in rat model of collagen-induced arthritis assessed as inhibition of paw swelling at 1 mg/kg, bid for 8 days relative to control; assay type: functional; details: 192 h
Rattus norvegicus [28] = assay: Antiarthritic activity in rat model of collagen-induced arthritis assessed as inhibition of paw swelling at 3 mg/kg, bid for 8 days relative to control; assay type: functional; details: 192 h
Rattus norvegicus [29] = assay: Antiarthritic activity in rat model of collagen-induced arthritis assessed as inhibition of paw swelling at 10 mg/kg, bid for 8 days relative to control; assay type: functional; details: 192 h
Rattus norvegicus [30] = assay: Antiarthritic activity in rat model of collagen-induced arthritis assessed as inhibition of paw swelling at 30 mg/kg, bid for 8 days relative to control; assay type: functional; details: 192 h
Rattus norvegicus [31] = assay: Toxicity in rat model of collagen-induced arthritis at 0.3 to 30 mg/kg, po bid for 8 days; assay type: organism-based; details: in vivo, 192 h
[32] = target: Voltage-gated inwardly rectifying potassium channel KCNH2 (Homo sapiens, UniProt Q12809); assay: Inhibition of human ERG
[33] = Cytotoxicity against human HepG2 cells; assay type: cell-based
Rattus norvegicus [34] = assay: Antiarthritic activity in po dosed rat model of collagen-induced arthritis assessed as inhibition of paw swelling administered bid for 8 days measured on day 8 up to 12 hrs; assay type: functional

Chain of Cytochrome P450 3A4 (P08684 whole entry): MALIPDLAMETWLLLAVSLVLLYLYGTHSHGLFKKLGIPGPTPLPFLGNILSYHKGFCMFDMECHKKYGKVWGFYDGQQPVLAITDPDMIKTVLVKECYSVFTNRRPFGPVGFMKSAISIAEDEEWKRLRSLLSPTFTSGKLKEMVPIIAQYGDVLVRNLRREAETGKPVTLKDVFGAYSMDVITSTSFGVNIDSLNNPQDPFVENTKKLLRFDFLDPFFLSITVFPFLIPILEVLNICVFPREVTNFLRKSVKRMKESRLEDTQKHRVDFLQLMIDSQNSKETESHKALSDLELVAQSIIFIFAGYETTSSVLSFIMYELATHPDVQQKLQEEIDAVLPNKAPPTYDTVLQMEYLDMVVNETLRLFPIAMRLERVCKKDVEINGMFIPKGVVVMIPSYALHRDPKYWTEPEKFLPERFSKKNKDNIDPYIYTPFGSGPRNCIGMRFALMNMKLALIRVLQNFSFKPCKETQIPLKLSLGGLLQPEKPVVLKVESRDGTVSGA
Chain of Voltage-gated inwardly rectifying potassium channel KCNH2 (Q12809 whole entry): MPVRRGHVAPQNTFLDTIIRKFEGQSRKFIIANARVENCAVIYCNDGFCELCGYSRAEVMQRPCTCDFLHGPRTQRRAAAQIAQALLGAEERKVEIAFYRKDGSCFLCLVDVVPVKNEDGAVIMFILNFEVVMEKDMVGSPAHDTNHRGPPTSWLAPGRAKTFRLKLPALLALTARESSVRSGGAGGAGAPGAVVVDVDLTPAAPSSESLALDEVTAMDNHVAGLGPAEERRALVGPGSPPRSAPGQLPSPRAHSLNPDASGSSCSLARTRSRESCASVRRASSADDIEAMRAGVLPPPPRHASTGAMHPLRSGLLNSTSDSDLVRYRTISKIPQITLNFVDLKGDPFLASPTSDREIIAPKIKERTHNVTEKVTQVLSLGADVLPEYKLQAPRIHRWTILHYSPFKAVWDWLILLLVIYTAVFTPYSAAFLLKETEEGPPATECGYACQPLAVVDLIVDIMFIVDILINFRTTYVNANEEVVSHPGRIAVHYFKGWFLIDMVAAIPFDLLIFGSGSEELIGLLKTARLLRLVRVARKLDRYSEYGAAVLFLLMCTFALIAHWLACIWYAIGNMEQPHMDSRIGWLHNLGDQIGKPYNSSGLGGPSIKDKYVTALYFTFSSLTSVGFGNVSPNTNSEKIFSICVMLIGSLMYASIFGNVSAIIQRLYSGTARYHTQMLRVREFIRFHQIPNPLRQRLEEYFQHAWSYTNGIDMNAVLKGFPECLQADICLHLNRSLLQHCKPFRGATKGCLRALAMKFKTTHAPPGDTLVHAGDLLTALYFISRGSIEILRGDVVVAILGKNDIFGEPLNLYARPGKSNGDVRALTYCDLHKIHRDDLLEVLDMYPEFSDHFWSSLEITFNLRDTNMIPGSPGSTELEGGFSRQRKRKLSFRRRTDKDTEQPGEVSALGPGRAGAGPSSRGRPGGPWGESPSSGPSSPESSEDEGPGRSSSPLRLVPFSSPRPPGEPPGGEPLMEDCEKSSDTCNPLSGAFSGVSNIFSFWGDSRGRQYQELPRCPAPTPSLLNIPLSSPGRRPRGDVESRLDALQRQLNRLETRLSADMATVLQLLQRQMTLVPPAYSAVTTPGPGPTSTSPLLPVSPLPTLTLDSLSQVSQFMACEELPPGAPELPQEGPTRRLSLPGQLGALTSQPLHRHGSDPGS
Chain of Rho-associated protein kinase 2 (O75116 whole entry): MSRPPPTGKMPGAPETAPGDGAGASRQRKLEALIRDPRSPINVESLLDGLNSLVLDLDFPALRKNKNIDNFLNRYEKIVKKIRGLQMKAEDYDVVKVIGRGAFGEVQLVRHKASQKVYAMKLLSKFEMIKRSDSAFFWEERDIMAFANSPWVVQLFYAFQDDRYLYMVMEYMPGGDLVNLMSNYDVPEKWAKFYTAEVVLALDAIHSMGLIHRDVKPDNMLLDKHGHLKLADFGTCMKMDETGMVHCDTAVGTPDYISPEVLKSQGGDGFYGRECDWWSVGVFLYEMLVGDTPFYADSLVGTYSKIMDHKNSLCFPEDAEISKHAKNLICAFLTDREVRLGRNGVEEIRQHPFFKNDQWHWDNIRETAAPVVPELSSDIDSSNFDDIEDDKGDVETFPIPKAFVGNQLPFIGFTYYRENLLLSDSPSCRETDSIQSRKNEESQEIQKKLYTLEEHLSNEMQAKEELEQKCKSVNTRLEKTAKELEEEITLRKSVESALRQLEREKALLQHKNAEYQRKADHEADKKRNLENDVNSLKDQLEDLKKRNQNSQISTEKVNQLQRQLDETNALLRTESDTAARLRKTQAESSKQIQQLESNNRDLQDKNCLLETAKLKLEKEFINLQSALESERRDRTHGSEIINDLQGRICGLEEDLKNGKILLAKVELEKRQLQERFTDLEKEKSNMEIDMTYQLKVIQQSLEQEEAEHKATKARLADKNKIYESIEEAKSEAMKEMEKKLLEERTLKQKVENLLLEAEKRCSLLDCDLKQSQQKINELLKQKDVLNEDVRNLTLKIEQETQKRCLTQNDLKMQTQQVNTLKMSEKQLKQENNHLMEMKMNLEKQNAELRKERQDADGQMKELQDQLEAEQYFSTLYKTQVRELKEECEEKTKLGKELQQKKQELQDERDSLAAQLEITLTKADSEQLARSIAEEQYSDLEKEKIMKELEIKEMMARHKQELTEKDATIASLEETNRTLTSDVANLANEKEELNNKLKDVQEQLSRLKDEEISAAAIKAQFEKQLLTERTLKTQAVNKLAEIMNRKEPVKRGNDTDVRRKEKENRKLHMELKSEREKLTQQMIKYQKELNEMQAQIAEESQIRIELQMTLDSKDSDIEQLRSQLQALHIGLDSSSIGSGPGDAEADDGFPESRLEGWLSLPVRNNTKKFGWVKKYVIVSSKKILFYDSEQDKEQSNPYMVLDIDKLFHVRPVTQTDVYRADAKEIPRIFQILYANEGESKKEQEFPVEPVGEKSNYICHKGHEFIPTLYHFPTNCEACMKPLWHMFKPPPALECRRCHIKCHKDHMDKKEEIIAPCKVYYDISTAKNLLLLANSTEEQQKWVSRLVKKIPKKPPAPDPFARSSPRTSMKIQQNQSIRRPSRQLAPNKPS
Chain of Serine/threonine-protein kinase B-raf (P15056 whole entry): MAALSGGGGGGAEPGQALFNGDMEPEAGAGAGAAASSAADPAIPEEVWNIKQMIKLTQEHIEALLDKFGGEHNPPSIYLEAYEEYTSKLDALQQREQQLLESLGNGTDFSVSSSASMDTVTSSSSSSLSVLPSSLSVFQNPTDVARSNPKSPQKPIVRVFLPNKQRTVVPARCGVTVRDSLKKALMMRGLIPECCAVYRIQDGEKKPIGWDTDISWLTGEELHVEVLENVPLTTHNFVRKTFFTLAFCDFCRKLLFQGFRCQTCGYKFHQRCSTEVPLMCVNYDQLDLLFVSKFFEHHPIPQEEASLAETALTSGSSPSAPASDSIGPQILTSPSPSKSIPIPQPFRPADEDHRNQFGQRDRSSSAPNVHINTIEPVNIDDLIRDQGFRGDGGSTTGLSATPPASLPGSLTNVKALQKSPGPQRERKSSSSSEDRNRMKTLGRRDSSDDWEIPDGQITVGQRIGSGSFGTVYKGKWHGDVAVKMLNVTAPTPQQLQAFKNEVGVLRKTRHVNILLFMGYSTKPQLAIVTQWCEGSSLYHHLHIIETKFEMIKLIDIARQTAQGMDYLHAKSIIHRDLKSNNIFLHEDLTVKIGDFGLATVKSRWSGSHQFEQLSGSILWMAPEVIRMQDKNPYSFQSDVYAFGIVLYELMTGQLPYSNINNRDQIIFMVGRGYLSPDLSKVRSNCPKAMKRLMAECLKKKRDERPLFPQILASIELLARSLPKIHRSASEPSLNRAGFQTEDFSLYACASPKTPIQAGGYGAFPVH
Chain of cGMP-dependent protein kinase 1 (Q13976 whole entry): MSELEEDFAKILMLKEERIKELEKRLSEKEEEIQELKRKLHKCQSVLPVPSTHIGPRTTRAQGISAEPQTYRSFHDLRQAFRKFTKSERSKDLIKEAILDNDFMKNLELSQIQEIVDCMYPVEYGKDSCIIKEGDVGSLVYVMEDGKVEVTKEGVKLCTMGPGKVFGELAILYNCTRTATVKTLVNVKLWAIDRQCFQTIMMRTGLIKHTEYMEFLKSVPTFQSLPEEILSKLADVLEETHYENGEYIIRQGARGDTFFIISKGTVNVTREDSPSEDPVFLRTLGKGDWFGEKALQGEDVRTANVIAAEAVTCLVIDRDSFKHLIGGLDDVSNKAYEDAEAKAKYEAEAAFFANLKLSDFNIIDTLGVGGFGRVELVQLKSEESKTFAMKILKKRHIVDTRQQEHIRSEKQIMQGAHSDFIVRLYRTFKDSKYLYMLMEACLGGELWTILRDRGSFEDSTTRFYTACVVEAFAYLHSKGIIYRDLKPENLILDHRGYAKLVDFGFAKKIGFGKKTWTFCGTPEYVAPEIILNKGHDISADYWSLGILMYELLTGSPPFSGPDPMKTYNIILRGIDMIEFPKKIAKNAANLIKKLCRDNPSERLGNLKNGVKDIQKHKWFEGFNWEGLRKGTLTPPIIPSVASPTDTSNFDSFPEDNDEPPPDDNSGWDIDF

## CCCNC(=O)c1ccc(Nc2nc(NCC(F)(F)F)c3cc[nH]c3n2)cc1
[1]
  pIC50: < 5.00
[2]
  pIC50: < 5.00
[3]
  pIC50: < 5.00
[4]
  pIC50: < 5.00
[5]
  pIC50: 6.61
[6]
  pIC50: 6.28
[7]
  pIC50: 6.00
[8]
  pIC50: 7.77
[9]
  pIC50: 8.10

## COC(=O)N[C@H]1CC(C)(C)c2ccc(Nc3nc(NC4CC4)c4occc4n3)cc2NC1=O
[10]
  CL free: 332 mL/min/kg
[11]
  CL free: 118 mL/min/kg

## CC1(C)Oc2ccc(Nc3nc(NCC(F)(F)F)c4occc4n3)cc2NC1=O
[10]
  CL free: 177 mL/min/kg

## CCCNc1nc(Nc2ccc3c(c2)NC(=O)COC3(C)C)nc2ccoc12
[10]
  CL free: 373 mL/min/kg
[11]
  CL free: 307 mL/min/kg
[12]
  solubility at 48 h: > 200 µM

## COC(=O)N[C@@H]1CC(C)(C)c2ccc(Nc3nc(NC4CC4)c4occc4n3)cc2NC1=O
[10]
  CL free: 182 mL/min/kg
[11]
  CL free: 123 mL/min/kg
[12]
  solubility at 48 h: 27 µM (≈ 12.2 µg/mL)

## COC(=O)N[C@@H]1CC(C)(C)c2ccc(Nc3nc(NCC(F)F)c4occc4n3)cc2NC1=O
[10]
  CL free: 177 mL/min/kg
[11]
  CL free: < 38.3 mL/min/kg
[12]
  solubility at 48 h: > 67 µM
Cytochrome P450 3A4
  TDI: Not Active
[13]
  clearance: 28.3 mL/min/kg
[14]
  clearance: 2.83 mL/min/kg
[15]
  half-life: 2 h
[16]
  half-life: 9.9 h
[17]
  Vd: 4.6 L/kg
[18]
  Vd: 2.3 L/kg
[19]
  bioavailability: 27%
[20]
  bioavailability: 40%
[21]
  AUC: 180 ng·h/mL
[22]
  AUC: 2340 ng·h/mL
[23]
  Cmax: 36 ng/mL
[24]
  Cmax: 151 ng/mL
Rattus norvegicus [25]
  ED50: 9 mg/kg
Rattus norvegicus [26]
  inhibition in vivo at 0.3 mg/kg: 21%
Rattus norvegicus [27]
  inhibition in vivo at 1 mg/kg: 21%
Rattus norvegicus [28]
  inhibition in vivo at 3 mg/kg: 28%
Rattus norvegicus [29]
  inhibition in vivo at 10 mg/kg: 75%
Rattus norvegicus [30]
  inhibition in vivo at 30 mg/kg: 95%
Rattus norvegicus [31]
  Activity: Non-Toxic
[32]
  pIC50: < 4.70
[33]
  IC20: > 10000 nM
Rattus norvegicus [34]
  EAUC50: 3.9 µg·h/mL

— ChEMBL document CHEMBL4007384, “Synthesis and optimization of furano[3,2-d]pyrimidines as selective spleen tyrosine kinase (Syk) inhibitors” (Bioorg Med Chem Lett, 2016)
